Values joined by “and” are separate entries in the source; they are usually repeats but may differ in a detail not shown here. Equal entries are not always repeated.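 Five concentrations, 48 hours, 96-well plates. GI50 is the concentration that inhibits growth by half. TGI denotes the concentration required for complete inhibition of growth.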 *1 amine or outer side, *2 acyl side, *3 side chain or, on linkers, in order; H or OH if unused. Where a SMILES comes first, the peptide text is derived from it. [ ]: non-standard residue; d: D form. The star is where a group is joined. X11 = C/C=C/CC(C)C(O)[C@H](N[*:1])C(=O)[*:2]; Decanoyl = CCCCCCCCCC(=O)*; Leu(ol) = CC(C)C[C@H](N)CO; Iva = CC[C@](C)(N)C(=O)O; Aib = CC(C)(N)C(=O)O
System: MDA-MB-468 breast
Test: NCI tumour cell line growth inhibition, 48 h

| SMILES | GI50 | TGI |
| --- | --- | --- |
| COC(=O)N1CCN(CCNCc2ccc(NC(=O)c3ccc(C)c(C#Cc4cnc5cccnn45)c3)cc2C(F)(F)F)CC1 | 1580 nM | 3200 nM |
| COc1cc(OC)cc(C2C3=C(COC3=O)Nc3cc(OC)ccc32)c1 (centres undefined) | < 10 nM | < 12.2 nM |
| Cc1cc(C)c(C#N)c(Sc2nc(C)c([N+](=O)[O-])c(C)c2C#N)n1 | 1650 nM | 3770 nM |
| C#Cc1cccc(Nc2nc(Cl)nc3cc(NC(=O)CCl)ccc23)c1 | 500 nM | 1170 nM |
| CCCCCCSSC(=S)N(CC)CC | 29900 nM | > 100000 nM |
| COc1cc(C2C3=C(COC3=O)N(CCO)c3cc4c(cc32)OCCO4)cc(OC)c1OC (centres undefined) | 106 nM | 319 nM |
| O=C(NC(=O)c1c(Cl)nc2sccn12)Nc1ccc(Cl)cc1 | 3950 nM | 35700 nM |
| Cn1cc(C2=C(c3c[nH]c4ccccc34)C(=O)NC2=O)c2ccccc21 | 470 nM | > 25000 nM |
| C/C=C/CC(C)C(O)[C@H](NC(=O)[C@@H]1CCCN1C(=O)[C@](C)(CC)NC(=O)CCCCCCCCC)C(=O)N[C@@](C)(CC)C(=O)N[C@@H](CCC(N)=O)C(=O)N[C@H](CCC(N)=O)C(=O)NC(C)(C)C(=O)NC(C)(C)C(=O)N[C@@H](CCC(N)=O)C(=O)N[C@H](CC(C)C)C(=O)N[C@H](CO)CC(C)C (stereo partly drawn) (Decanoyl-[Iva]P[X11][Iva]Q[dQ][Aib][Aib]Q[dL][Leu(ol)]) | 1780 nM | 3380 nM |
| CCN(CC)CCCC(C)Nc1cc(-c2cccc(OC(F)(F)F)c2)nc2ccc(N3CCCC3)cc12 (centres undefined) | 43.5 nM | 44000 nM |
| CSc1nc2nc3c(nc2c(=O)n1C)C(=O)c1ccccc1C3=O | 140 nM | 352 nM |
| COc1ccc(C(=O)c2cc(C)c(OC)c(C)c2)c(OC)c1NC(C)=O | 159 nM |  |
| Cc1c(C#N)cccc1[C@@H](C)Nc1nnc(C)c2cnc(N3CCOCC3)cc12 | 7630 nM | 38100 nM |
| CS(=O)(=O)Nc1cccc(-c2ccc3ncnc(Nc4ccc(F)c(Cl)c4)c3c2)c1 | 108 nM | 860 nM |
| O=C(/C=C/C=C/c1ccccc1)c1ccco1 | 5000 nM | 25100 nM |
| NS(=O)(=O)c1ccc(Nc2nc(N/N=C/c3ccc(C(F)(F)F)cc3)nc(Nc3ccccc3)n2)cc1 | 1730 nM | 3870 nM |
| C#C[C@@]1(O)[C@@H](CO)O[C@@H](n2cc(I)c3c(N)ncnc32)[C@@H]1O | 153 nM | 561 nM |
| CC(=O)N1CCN(CCNC(=O)n2cc(-c3ccncc3)c(-c3cc(O)cc(Cl)c3)n2)CC1 | 4590 nM | 20800 nM |
| CC/C(Cc1ccccc1)=C(\c1ccc(OCCN2CCCC2)cc1)c1ccc(OC(=O)NCc2ccccc2)cc1 | 1990 nM | 3930 nM |
| NC(=O)c1ccc(Oc2nccc(-c3c(-c4ccc(F)cc4)ncn3C3CCNCC3)n2)cc1 | 7400 nM | > 25000 nM |

| SMILES | GI50 | TGI |
| --- | --- | --- |
| COc1ccc(C(=O)/C=C/c2cc(-c3cc(OC)c(OC)c(OC)c3)n[nH]2)cc1 | 1290 nM | 2650 nM |
| O=C1/C(=C/c2ccc(F)cc2)CN(C(=O)CCN2CCC(=NO)CC2)C/C1=C\c1ccc(F)cc1 | 1730 nM | 4720 nM |
| N#CC1=C(N)Oc2c(ccc3ccccc23)C1c1cc(=O)oc2ccc(Cl)cc12 (centres undefined) | 520 nM | 33000 nM |
| COc1ccc(-c2nc(-c3nc4ccc(C)cc4[nH]3)cc3c2[nH]c2ccccc23)cc1 | 2690 nM | 25000 nM |
| C[C@@H]1CCC/C=C/[C@H]2C[C@@H](O)C[C@@H]2[C@@H](O)/C=C/C(=O)O1 | 64.8 nM | 5030 nM |
| CC(C)N(Cc1ccc(CN(C(=O)CCl)C(C)C)cc1)C(=O)CCl | 1740 nM | 3940 nM |
| CNCCN(C)c1ccc(Nc2cc(NC3CC3)n3ncc(C#N)c3n2)cc1NC(C)=O | < 10.6 nM | 62.6 nM |
| CN(C)CCCn1c(=O)c2ccccc2c2cnc3[nH]ccc3c21 | 493 nM | 2530 nM |
| CNCCCNc1nc2ccccc2c2c(=O)c3cc(OC)ccc3sc12 | 1760 nM | 3470 nM |
| Clc1ccc(-c2c3ccc(=[N+]4CCCCC4)cc-3oc3cc(N4CCCCC4)ccc23)cc1 | 104 nM | 261 nM |
| CS(=O)(=O)c1ccc(Nc2nc(N[C@H]3CCCC[C@H]3N)nc3cc[nH]c(=O)c23)cc1 | 338 nM | 1460 nM |
| O=C(NCC(F)(F)F)Nc1cccc(-c2cnc3cc(-c4ccc(F)cc4)ccn23)c1 | 339 nM | 1930 nM |
| Cc1ccc(-c2nc(/C=N/Nc3cc(C)nc4ccc(Cl)cc34)c(C)o2)cc1 | 1730 nM | 3260 nM |
| O=C1CSC(c2ccccc2Cl)N1c1nnc(Cn2cnnc2)o1 (centres undefined) | 3850 nM | 17200 nM |
| CN=C1C=CC(=C(c2ccc(N(C)C)cc2)c2ccc(N(C)C)cc2)C=C1 | 178 nM | 539 nM |
| c1ccc(OCCC[P+](c2ccccc2)(c2ccccc2)c2ccccc2)cc1 | 230 nM | 1490 nM |
| O=C(NCCCc1cn[nH]c1)c1ccc(-c2ccncc2)c(C#Cc2ccc(F)cc2)c1 | 2140 nM | 12800 nM |
| COc1ccc(-c2cc3c(C)nc(N)nc3n(C3CCC(OCCO)CC3)c2=O)cn1 (centres undefined) | 41.7 nM and 32.3 nM | 270 nM and 256 nM |
| COc1cccc2cc(N(C)c3nc(C)nc4c3CCC4)ccc12 | < 10 nM | 20500 nM |
| COc1ccccc1S(=O)(=O)Nc1ccc2c3c(cc(CCC(=O)NCCCCNc4cccc5c4C(=O)N(C4CCC(=O)NC4=O)C5=O)cc13)C(=O)N2C (centres undefined) | 21.7 nM | 87.2 nM |
